Assay results from ChEMBL document CHEMBL1201862, “PubChem BioAssay data set” (2004).
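Growth conditions: 96-well plates. Treatment: test compound, 48 hours, 5 concentrations. Analysis: linear interpolation between bracketing concentrations; unreached endpoints set to highest concentration. At the GI50, growth is halved.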 Calls of active or inactive are those of the source. No stated cut-off is given here; in the data, active = GI50 up to about 1.1 µM and inactive = higher.

Tests used:
Test in all cases: NCI anticancer screen, dose series, 48 h
K562 = tested on: K562
SN12C = tested on: SN12C
CAKI-1 = tested on: CAKI-1
RXF 393 = tested on: RXF 393
HOP-62 = tested on: HOP-62
SK-MEL-2 = tested on: SK-MEL-2
M19-MEL = tested on: M19-MEL
OVCAR-5 = tested on: OVCAR-5
SF-268 = tested on: SF-268
UACC-257 = tested on: UACC-257
HL-60 = tested on: HL-60
TK-10 = tested on: TK-10
OVCAR-8 = tested on: OVCAR-8
HT-29 = tested on: HT-29
CCRF-CEM = tested on: CCRF-CEM
SF-295 = tested on: SF-295
HOP-92 = tested on: HOP-92
HCC 2998 = tested on: HCC 2998
ACHN = tested on: ACHN
NCI/ADR-RES = tested on: NCI/ADR-RES

## O=C(O)C12CC3CC(C1)C2C=C3P(=O)(O)O (stereo not given)
K562
  GI50: > 100 µM (inactive)
SN12C
  GI50: > 100 µM (inactive)
CAKI-1
  GI50: > 100 µM (inactive)
RXF 393
  GI50: > 100 µM (inactive)
HOP-62
  GI50: > 100 µM (inactive)
SK-MEL-2
  GI50: > 100 µM (inactive)
M19-MEL
  GI50: > 100 µM (inactive)
OVCAR-5
  GI50: > 100 µM (inactive)
SF-268
  GI50: > 100 µM (inactive)
UACC-257
  GI50: > 100 µM (inactive)
HL-60
  GI50: > 100 µM (inactive)
TK-10
  GI50: > 100 µM (inactive)
OVCAR-8
  GI50: > 100 µM (inactive)
HT-29
  GI50: > 100 µM (inactive)
CCRF-CEM
  GI50: > 100 µM (inactive)
SF-295
  GI50: > 100 µM (inactive)
HOP-92
  GI50: > 100 µM (inactive)
HCC 2998
  GI50: > 100 µM (inactive)
ACHN
  GI50: > 100 µM (inactive)

## CN(C)CCNC(=O)c1cccc2nc(-c3ccccc3)oc12
K562
  GI50: 1.94 µM (inactive)
SN12C
  GI50: 41.1 µM (inactive)
RXF 393
  GI50: 32.2 µM (inactive)
HOP-62
  GI50: > 66.7 µM (inactive)
NCI/ADR-RES
  GI50: 42.9 µM (inactive)
SK-MEL-2
  GI50: > 62.5 µM (inactive)
M19-MEL
  GI50: 33 µM (inactive)
OVCAR-5
  GI50: 38.5 µM (inactive)
SF-268
  GI50: > 64.6 µM (inactive)
UACC-257
  GI50: 36.3 µM (inactive)
HL-60
  GI50: 8.18 µM (inactive)
OVCAR-8
  GI50: 35.9 µM (inactive)
HT-29
  GI50: 31 µM (inactive)
CCRF-CEM
  GI50: 45.6 µM (inactive)
SF-295
  GI50: 31.3 µM (inactive)
HOP-92
  GI50: 13 µM (inactive)
HCC 2998
  GI50: 54.5 µM (inactive)

## CCCCCOc1ccc(/C=N\c2ccc(-c3ccc(/N=C\c4ccc(OCCCCC)cc4)c(OC)c3)cc2OC)cc1
K562
  GI50: > 31.6 µM (inactive)
SN12C
  GI50: > 100 µM (inactive)
RXF 393
  GI50: > 100 µM (inactive)
HOP-62
  GI50: > 100 µM (inactive)
NCI/ADR-RES
  GI50: > 100 µM (inactive)
SK-MEL-2
  GI50: > 100 µM (inactive)
M19-MEL
  GI50: > 100 µM (inactive)
OVCAR-5
  GI50: > 100 µM (inactive)
SF-268
  GI50: > 100 µM (inactive)
UACC-257
  GI50: > 100 µM (inactive)
HL-60
  GI50: > 100 µM (inactive)
OVCAR-8
  GI50: > 100 µM (inactive)
HT-29
  GI50: > 100 µM (inactive)
CCRF-CEM
  GI50: > 100 µM (inactive)
SF-295
  GI50: > 100 µM (inactive)
HOP-92
  GI50: > 100 µM (inactive)
HCC 2998
  GI50: > 100 µM (inactive)

## CC[C@@]1(O)C[C@H](OC2CC(N(C)C)C(OC3CC(O)C(OC4CC(O)C(O)C(C)O4)C(C)O3)C(C)O2)c2c(cc3c(c2O)C(=O)c2c(O)ccc(O)c2C3=O)[C@H]1C(=O)OC (stereo not given in full)
K562
  GI50: 0.0109 µM (active)
SN12C
  GI50: 0.0148 µM (active)
CAKI-1
  GI50: 0.0082 µM (active)
RXF 393
  GI50: 0.0356 µM (active)
HOP-62
  GI50: 0.06 µM (active)
NCI/ADR-RES
  GI50: 0.625 µM (active)
SK-MEL-2
  GI50: 0.0398 µM (active)
M19-MEL
  GI50: 0.0121 µM (active)
OVCAR-5
  GI50: 0.254 µM (active)
SF-268
  GI50: 0.0263 µM (active)
UACC-257
  GI50: 0.0255 µM (active)
HL-60
  GI50: 0.0448 µM (active)
OVCAR-8
  GI50: 0.00474 µM (active)
HT-29
  GI50: 0.022 µM (active)
CCRF-CEM
  GI50: < 0.0181 µM (active)
SF-295
  GI50: 0.0113 µM (active)
HOP-92
  GI50: 0.0902 µM (active)
HCC 2998
  GI50: 0.1 µM (active)

## CC(=O)OC1CC2(O)C(CCC3(C)C(c4ccc(=O)oc4)CCC32O)C2(C)CCC(O)C=C12 (stereo not given)
K562
  GI50: 0.0375 µM (active)
SN12C
  GI50: 0.00462 µM (active)
CAKI-1
  GI50: 0.0375 µM (active)
RXF 393
  GI50: 0.0375 µM (active)
HOP-62
  GI50: 0.0375 µM (active)
NCI/ADR-RES
  GI50: 0.0125 µM (active)
SK-MEL-2
  GI50: 0.0177 µM (active)
M19-MEL
  GI50: 0.0234 µM (active)
OVCAR-5
  GI50: 0.104 µM (active)
SF-268
  GI50: 0.0375 µM (active)
UACC-257
  GI50: 0.0242 µM (active)
HL-60
  GI50: 0.00455 µM (active)
OVCAR-8
  GI50: 0.0152 µM (active)
HT-29
  GI50: 0.0239 µM (active)
SF-295
  GI50: 0.00955 µM (active)
HOP-92
  GI50: 0.0604 µM (active)
HCC 2998
  GI50: 0.0644 µM (active)

## CC(=O)Nc1ccc(/C=C/c2ccc(NC(=O)Nc3ccc(/C=C/c4ccc(NC(C)=O)cc4S(=O)(=O)O)c(S(=O)(=O)O)c3)cc2S(=O)(=O)O)c(S(=O)(=O)O)c1
K562
  GI50: > 100 µM (inactive)
SN12C
  GI50: > 100 µM (inactive)
RXF 393
  GI50: > 100 µM (inactive)
HOP-62
  GI50: > 100 µM (inactive)
NCI/ADR-RES
  GI50: > 100 µM (inactive)
SK-MEL-2
  GI50: > 100 µM (inactive)
M19-MEL
  GI50: > 100 µM (inactive)
OVCAR-5
  GI50: > 100 µM (inactive)
SF-268
  GI50: > 100 µM (inactive)
UACC-257
  GI50: > 100 µM (inactive)
HL-60
  GI50: 60.1 µM (inactive)
OVCAR-8
  GI50: > 100 µM (inactive)
HT-29
  GI50: > 100 µM (inactive)
CCRF-CEM
  GI50: > 100 µM (inactive)
SF-295
  GI50: > 100 µM (inactive)
HOP-92
  GI50: 43.1 µM (inactive)
HCC 2998
  GI50: 98.6 µM (inactive)
